In patent US6608065B1, “Use of cGMP phosphodiesterase inhibitors in methods to treat female sexual dysfunction” (ICOS Corporation, priority 1995, dated 2003):

C[C@H]1C(=O)N2[C@H](c3ccc4c(c3)OCO4)c3[nH]c4ccccc4c3C[C@@H]2C(=O)N1C [Compound B, (3S, 6R, 12aR)-2,3,6,7,12,12a-hexahydro-2,3-dimethyl-6-(3,4-methylenedioxyphenyl)-pyrazino[2′, 1′:6,1]pyrido[3,4-b]indole-1,4-dione]
melting point: 307 to 309 °C

C[C@@H]1NC(=O)[C@H]2Cc3c([nH]c4ccccc34)[C@@H](c3ccc4c(c3)OCO4)N2C1=O [Example 3, (3S, 6R,12aR)-2,3,6,7,12,12a-Hexahydro-3-methyl-6-(3,4-methylenedioxyphenyl)-pyrazino[2′, 1′:6,1]pyrido[3,4-b]indole-1,4-dione]
melting point: 319 to 321 °C
